# Assay results reported in patent publication US20100249205A1 (ARIZONA BOARD OF REGENTS, priority 2005, published 2010).
# Like-named read-outs stand apart in the source and are kept apart here.
# Experiments:
# [1] = target: T1, recombinant bovine p110α/p85α (Bos taurus, UniProt P32871); experiment: Recombinant PI-3 kinase inhibition, [32P]γ-ATP dependent phosphorylation of phosphatidylinositol; format: biochemical
# T1 construct: purchased Jena Bioscience, Jena, Germany
# [2] = target: T2, recombinant human p110δ/p85α (Homo sapiens, UniProt O00329); experiment: as above; format: biochemical
# T2 construct: purchased Upstate, Charlottesville, Va
# T2 sequence (O00329 whole entry): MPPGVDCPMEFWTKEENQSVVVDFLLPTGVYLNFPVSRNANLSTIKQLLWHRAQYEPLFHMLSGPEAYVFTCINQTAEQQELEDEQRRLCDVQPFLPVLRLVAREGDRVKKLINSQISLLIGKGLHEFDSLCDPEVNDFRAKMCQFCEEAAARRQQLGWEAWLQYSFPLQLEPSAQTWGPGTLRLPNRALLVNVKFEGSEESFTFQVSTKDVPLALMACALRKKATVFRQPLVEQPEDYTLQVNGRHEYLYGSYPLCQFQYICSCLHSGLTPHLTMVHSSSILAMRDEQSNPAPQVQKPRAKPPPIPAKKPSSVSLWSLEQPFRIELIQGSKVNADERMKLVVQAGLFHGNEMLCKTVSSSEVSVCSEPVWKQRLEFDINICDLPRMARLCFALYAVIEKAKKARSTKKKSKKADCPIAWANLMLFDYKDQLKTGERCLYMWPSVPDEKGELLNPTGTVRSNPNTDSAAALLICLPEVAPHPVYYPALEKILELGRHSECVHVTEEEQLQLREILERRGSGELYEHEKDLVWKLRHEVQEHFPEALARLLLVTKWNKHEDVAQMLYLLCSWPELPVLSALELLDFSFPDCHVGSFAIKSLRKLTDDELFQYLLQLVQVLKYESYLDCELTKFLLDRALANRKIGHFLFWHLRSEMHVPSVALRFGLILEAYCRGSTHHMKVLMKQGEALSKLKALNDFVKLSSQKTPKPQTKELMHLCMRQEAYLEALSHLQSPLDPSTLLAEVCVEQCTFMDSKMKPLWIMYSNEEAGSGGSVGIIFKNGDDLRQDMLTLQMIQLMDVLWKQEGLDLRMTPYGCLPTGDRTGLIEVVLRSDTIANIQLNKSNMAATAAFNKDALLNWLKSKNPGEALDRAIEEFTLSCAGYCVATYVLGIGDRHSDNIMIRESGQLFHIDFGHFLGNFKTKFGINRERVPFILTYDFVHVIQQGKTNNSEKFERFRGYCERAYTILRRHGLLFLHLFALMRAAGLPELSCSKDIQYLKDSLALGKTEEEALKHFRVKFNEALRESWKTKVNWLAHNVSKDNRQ
# T2 sequence (P27986 whole entry partner): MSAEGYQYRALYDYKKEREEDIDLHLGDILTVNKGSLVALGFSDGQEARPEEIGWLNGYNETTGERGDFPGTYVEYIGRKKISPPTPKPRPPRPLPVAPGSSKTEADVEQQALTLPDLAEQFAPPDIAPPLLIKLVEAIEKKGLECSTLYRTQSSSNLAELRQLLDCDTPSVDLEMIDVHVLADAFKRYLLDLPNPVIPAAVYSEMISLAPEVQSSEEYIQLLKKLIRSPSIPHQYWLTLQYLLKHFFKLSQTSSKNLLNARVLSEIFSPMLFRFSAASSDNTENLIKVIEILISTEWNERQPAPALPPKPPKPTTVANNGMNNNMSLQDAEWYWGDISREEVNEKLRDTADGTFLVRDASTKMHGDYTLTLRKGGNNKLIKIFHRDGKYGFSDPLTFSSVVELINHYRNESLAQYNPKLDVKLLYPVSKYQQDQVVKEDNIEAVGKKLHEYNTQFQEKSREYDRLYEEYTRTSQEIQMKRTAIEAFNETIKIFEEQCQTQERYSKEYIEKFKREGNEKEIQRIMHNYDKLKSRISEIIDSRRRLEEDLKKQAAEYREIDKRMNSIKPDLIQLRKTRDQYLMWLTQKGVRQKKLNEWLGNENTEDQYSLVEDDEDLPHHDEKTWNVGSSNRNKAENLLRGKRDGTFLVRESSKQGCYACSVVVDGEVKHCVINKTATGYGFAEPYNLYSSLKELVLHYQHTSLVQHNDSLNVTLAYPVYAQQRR
# [3] = system: phospho-Ser^473-Akt in HT-29 colon cancer cells; experiment: Inhibition of EGF-dependent activation of Akt (phospho-Ser473-Akt western blot); format: cell-based, human; conditions: HT-29 cells, 4 hours exposure, EGF 50 ng/ml for 20 minutes
# Description: The cells were then stimulated with epidermal growth factor (EGF) at 50 ng/ml for 20 minutes. Cells were lysed and the proteins were separated on an SDS-PAGE and transferred to nitrocellulose.
# [4] = system: HT-29 human colon cancer cells; experiment: Cytotoxicity / cell growth inhibition in HT-29 cells, cell number by flow cytometry; format: cell-based; conditions: read-out: growth inhibitory concentration 50% (IC50)
# Description: The compounds were added from a 10 mg/ml stock solution in ethanol. Cell number was determined after 3 days by flow cytometry using a Guava EasyCyte Plus flow cytometer (Guava Technologies). The results are expressed as cell number at the end of the assay as percent of the control value with no drug. Values are the mean of 3 determinations and bars are standard deviation.
# [5] = Stability of PX-866 in buffer systems by HPLC; format: physicochemical; conditions: for % remaining / % degradation: 1 mg/mL; for % remaining: within 2 hours, 4° C.; for % degradation: after 2 hours of storage
# Description: This solution was used as a stock to make the various test buffer solutions to be analyzed. The stock, in each case, was diluted 1:10 to a final storage concentration of 1 mg/mL with 5% dextrose for injection (D5W), sterile water for injection (SW), 0.9% sodium chloride for injection (NS), absolute ethanol (EtOH), and 20 mM sodium phosphate (NaH2PO4) buffer. Prior to analysis the test buffers were further diluted 1:100, to a final analytical concentration of 10 μg/mL, with 50:50 0.2% formic acid:methanol, v:v. 50 μL of each sample was then injected into the HPLC system (Alliance 2695 Separation Module, Waters, Milford, Mass.; see Table 2 for HPLC parameters) for analysis. The 2 hour and 24 hour test samples were stored, undiluted, at 4° C. prior to analysis while the 0 hour samples were immediately quantified following dilution.
# [6] = from U.S. application Ser. No. 11/178,553; cited from earlier work
# NCI cell panel = experiment: Cytotoxicity, NCI cell panel (growth inhibition, MTT assay); conditions: Homo sapiens, read-out: Cytotoxicity: NCI cell panel IC50
# Source text: The proliferation of cells may be dependent on the PI-3 kinase-Akt-mTOR signaling pathway. In addition, signaling through PI-3 kinase and Akt appears to inhibit apoptosis. […] The MTT assay is a standard colorimetric assay for measuring cellular proliferation (cell growth). It is universally used to determine cytotoxicity of potential medicinal agents and other toxic materials. Yellow MTT (3-(4,5-Dimethylthiazol-2-yl)-2,5-diphenyltetrazolium bromide) is reduced to purple formazan in the mitochondria of living cells. This reduction takes place only when mitochondrial reductase enzymes are active, and therefore conversion is directly related to the number of viable (living) cells. […] Toxicities are measured at the maximum tolerated dose or the highest dose tested. […] Alanine aminotranferease (ALT) and aspartate aminotransferase (AST) are enzymes located in liver cells that leak out into the general circulation when liver cells are injured. […] A low liver toxicity and a high lymphocyte toxicity as a surrogate for inhibition of tumor cell growth is the desirable feature.
# mTOR = mTOR (Homo sapiens, UniProt P42345); experiment: mTOR inhibition (Table 1); format: biochemical
# PI-3 kinase = format: biochemical; conditions: read-out: PI-3 kinase inhibition IC50
# [7] = In vitro metabolism in murine S9 fractions; format: in vitro ADME; conditions: phase I, phase II and phase I/II reactions, 60 min
# Description: Metabolites generated in these reactions were identified by HPLC runs, using a wavelength of 310 nm (see FIG. 6C). Peaks representing metabolites were identified by comparing the HPLC profiles (at 310 nm) in chromatograms from 0 min and 60 min reaction times. The corresponding mass spectral (MS) analysis of these peaks, using quadrupolar time-of-flight MS allowed the accurate mass of the metabolites to be determined (see FIG. 6D). Metabolynx software (Waters-MicroMass, Milford, Mass.) was used to interpret the spectra.
# We identified the M#1 as a reduction product which is most probably a non-microsomal carbonyl reduction of a ketone to a secondary alcohol, as described in previous metabolism studies. In addition, M#2-3 were the same reduction products however, the alteration in retention time may indicate that the molecule undergoes reduction in sites other than that observed with M#1.
# [8] = HT-29 cells, 3 days, cell number as percent of control
# T1 sequence (P32871 whole entry): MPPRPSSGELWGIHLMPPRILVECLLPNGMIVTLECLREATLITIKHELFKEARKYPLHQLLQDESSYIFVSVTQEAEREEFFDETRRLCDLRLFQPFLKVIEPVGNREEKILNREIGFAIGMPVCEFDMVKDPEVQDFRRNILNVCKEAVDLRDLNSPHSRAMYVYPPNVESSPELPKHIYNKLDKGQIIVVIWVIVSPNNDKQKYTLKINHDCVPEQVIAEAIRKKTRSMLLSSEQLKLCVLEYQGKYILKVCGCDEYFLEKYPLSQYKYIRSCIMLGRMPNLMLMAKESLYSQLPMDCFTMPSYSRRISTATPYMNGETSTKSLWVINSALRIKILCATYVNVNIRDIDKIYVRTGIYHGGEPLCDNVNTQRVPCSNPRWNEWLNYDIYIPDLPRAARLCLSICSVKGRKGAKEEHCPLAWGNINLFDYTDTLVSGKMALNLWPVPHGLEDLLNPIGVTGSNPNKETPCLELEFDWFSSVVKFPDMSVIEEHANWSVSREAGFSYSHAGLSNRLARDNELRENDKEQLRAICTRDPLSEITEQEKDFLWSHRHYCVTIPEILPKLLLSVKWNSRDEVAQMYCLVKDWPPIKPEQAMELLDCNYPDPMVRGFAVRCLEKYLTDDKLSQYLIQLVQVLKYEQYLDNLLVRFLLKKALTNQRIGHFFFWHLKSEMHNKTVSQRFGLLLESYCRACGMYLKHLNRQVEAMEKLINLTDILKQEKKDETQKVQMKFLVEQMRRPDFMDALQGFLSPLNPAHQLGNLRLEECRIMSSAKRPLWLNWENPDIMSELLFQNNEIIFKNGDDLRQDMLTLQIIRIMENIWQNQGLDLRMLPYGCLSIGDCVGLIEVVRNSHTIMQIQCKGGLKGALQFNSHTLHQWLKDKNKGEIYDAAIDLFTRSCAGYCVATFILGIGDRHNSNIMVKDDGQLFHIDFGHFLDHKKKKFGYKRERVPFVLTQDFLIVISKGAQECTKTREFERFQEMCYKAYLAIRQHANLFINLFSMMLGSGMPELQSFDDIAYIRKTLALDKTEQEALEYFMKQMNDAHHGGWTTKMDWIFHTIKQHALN
# T1 sequence (P23727 whole entry partner): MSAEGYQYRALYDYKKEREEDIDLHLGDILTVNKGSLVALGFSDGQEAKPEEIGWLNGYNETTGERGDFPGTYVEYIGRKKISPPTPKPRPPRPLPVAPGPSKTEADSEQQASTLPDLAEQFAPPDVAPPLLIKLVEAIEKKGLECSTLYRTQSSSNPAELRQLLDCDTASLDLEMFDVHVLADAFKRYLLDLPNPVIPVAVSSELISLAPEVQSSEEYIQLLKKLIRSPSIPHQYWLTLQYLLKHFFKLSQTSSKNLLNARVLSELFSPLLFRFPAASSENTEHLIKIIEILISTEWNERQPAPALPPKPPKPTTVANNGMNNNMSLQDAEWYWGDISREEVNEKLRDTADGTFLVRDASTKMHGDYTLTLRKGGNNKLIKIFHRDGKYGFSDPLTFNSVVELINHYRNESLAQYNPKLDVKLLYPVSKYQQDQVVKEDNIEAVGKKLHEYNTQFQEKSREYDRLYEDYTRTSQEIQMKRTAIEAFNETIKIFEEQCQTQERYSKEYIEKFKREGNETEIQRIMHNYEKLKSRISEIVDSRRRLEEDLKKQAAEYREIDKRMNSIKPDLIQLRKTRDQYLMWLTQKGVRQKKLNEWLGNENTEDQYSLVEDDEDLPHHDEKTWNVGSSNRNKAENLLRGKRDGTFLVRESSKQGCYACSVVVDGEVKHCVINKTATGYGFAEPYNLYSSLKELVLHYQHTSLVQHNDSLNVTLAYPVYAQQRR
Molecule,inhibition of p110α isoform of PI-3 kinase [1],inhibition of p110δ isoform of PI-3 kinase [2],IC50 for inhibition of phospho-Ser473-Akt (ratio to total Akt) [3],"IC50 [4, 8] [nM]",IC50 (NCI cell panel) [nM],IC50 (PI-3 kinase) [nM],further results
"11-deacetylated,17-hydroxy PX-866 [PX-866-1]",considerably less active,considerably less active,greater than 70 nM,4500,–,–,–
17-hydroxy PX-866 [PX-866-2],as active as PX-866 or wortmannin,as active as PX-866 or wortmannin,40 nM,> 50000,–,–,–
"C=CCN(/C=C1/C(=O)O[C@H](COC)[C@@]2(C)C1=C(O)C(=O)C1=C2[C@H](OC(C)=O)C[C@]2(C)C(=O)CC[C@@H]12)CC=C [PX-866, Acetic acid 4-diallylaminomethylene-6-hydroxy-1-α-methoxymethyl-10β,13β-dimethyl-3,7,17-trioxo-1,3,4,7,10,11β,12,13,14α,15,16,17-dodecahydro-2-oxa-cyclopenta[α]phenanthren-11-yl ester]",–,–,–,–,2200,0.5,"% remaining ([5]; 20 mM sodium phosphate buffer): > 60%; % remaining ([5]; D5W (5% dextrose for injection)): > 80%; % degradation ([5]; EtOH (absolute ethanol)): < 10%; % degradation ([5]; NS (0.9% sodium chloride for injection)): < 10%; % degradation ([5]; SW (sterile water for injection)): < 10%; stability from 2 to 24 hours ([5]; regardless of the buffer system employed): maintained relative stability; blood levels following oral administration [6]: low; IC50 (mTOR; read-out: mTOR inhibition IC50): > 3000 nM; type of metabolites formed [7]: only Phase I-type metabolites were formed; IC50 ([4]; Homo sapiens, HT-29, 72 h): 4000 nM"
"COCC1OC(=O)C(=CN2CCCC2)C2=C(O)C(=O)C3=C(C(OC(C)=O)CC4(C)C(=O)CCC34)C21C (stereo not drawn) [PX-867, Acetic acid 6-hydroxy-1α-methoxymethyl-10β,13β-dimethyl-3,7,17-trioxo-4-pyrrolidin-1-yl-methylene-1,3,4,7,10,11β,12,13,14α,15,16,17-dodecahydro-2-oxa-cyclopenta[α]phenanthren-11-yl]",–,–,–,–,500,1.1,IC50 (mTOR): > 3000 nM
"COC[C@H]1OC(=O)c2coc3c2[C@@]1(C)C1=C(C3=O)[C@@H]2CCC(=O)[C@@]2(C)C[C@H]1OC(C)=O [Wortmannin, wortmannin, reference compound]",–,–,–,–,8900,–,–
